In BindingDB's records for doi:10.1016/j.str.2004.01.005 (University of Dundee, 2004):
pIC50: −log10 of the molar value.

Experiments:
Test in all cases: PDK1 Kinase Activity Assay
Settings in all cases: pH 7.5; 30 °C
[1] = molecular target: T1, 3-phosphoinositide-dependent protein kinase 1 [51-359] (Human, UniProt O15530)
T1 construct: 51-359
T1 sequence (O15530 whole entry): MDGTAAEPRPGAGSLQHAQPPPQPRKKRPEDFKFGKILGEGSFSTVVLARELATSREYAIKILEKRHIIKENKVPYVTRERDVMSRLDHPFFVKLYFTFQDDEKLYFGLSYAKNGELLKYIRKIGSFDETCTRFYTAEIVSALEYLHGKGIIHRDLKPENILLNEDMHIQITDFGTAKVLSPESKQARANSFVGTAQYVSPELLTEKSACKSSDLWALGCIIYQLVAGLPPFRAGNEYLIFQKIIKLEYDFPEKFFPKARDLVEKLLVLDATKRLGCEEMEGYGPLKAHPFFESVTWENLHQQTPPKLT

[2] = molecular target: T2, 3-phosphoinositide-dependent protein kinase 1 [51-359,A162V] (Homo sapiens, UniProt O15530, A162V)
T2 construct: 51-359
T2 sequence (O15530 51-359 A162V): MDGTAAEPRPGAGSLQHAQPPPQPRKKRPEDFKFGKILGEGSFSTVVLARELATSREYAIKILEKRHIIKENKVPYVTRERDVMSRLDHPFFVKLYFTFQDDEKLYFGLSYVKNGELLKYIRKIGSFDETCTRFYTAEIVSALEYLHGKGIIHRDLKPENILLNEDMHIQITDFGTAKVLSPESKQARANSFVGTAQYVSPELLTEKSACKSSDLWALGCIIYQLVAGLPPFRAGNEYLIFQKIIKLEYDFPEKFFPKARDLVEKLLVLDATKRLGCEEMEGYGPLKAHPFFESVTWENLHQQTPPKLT

[3] = molecular target: T3, 3-phosphoinositide-dependent protein kinase 1 [51-359,E166D] (Homo sapiens, UniProt O15530, E166D)
T3 construct: 51-359
T3 sequence (O15530 51-359 E166D): as the sequence (O15530 51-359 A162V) above, with V112A, E116D counted along it

[4] = molecular target: T4, 3-phosphoinositide-dependent protein kinase 1 [51-359,L159M] (Homo sapiens, UniProt O15530, L159M)
T4 construct: 51-359
T4 sequence (O15530 51-359 L159M): as the sequence (O15530 51-359 A162V) above, with L109M, V112A counted along it

[5] = molecular target: T5, 3-phosphoinositide-dependent protein kinase 1 [51-359,T222A] (Homo sapiens, UniProt O15530, T222A)
T5 construct: 51-359
T5 sequence (O15530 51-359 T222A): as the sequence (O15530 51-359 A162V) above, with V112A, T172A counted along it

[6] = molecular target: T6, 3-phosphoinositide-dependent protein kinase 1 [51-359,V143T,T222A] (Homo sapiens, UniProt O15530, T222A/V143T)
T6 construct: 51-359
T6 sequence (O15530 51-359 V143T/T222A): as the sequence (O15530 51-359 A162V) above, with V93T, V112A, T172A counted along it

[7] = molecular target: T7, 3-phosphoinositide-dependent protein kinase 1 [51-359,V143T] (Homo sapiens, UniProt O15530, V143T)
T7 construct: 51-359
T7 sequence (O15530 51-359 V143T): as the sequence (O15530 51-359 A162V) above, with V93T, V112A counted along it

pIC50 [1]	pIC50 [2]	pIC50 [3]	pIC50 [4]	pIC50 [5]	pIC50 [6]	pIC50 [7]	Structure (SMILES)
5.05							CN(C)CCCn1cc(C2=C(c3c[nH]c4ccccc34)C(=O)NC2=O)c2ccccc21 [2-[1-(3-dimethylaminopropyl)-indol-3-yl]-3-(indol-3-yl)maleimide]
4.85							CN1CCCC1CCn1cc(C2=C(c3c[nH]c4ccccc34)C(=O)NC2=O)c2ccccc21 (stereo not given) [3-(1H-indol-3-yl)-4-{1-[2-(1-methylpyrrolidin-2-yl)ethyl]-1H-indol-3-yl}-2,5-dihydro-1H-pyrrole-2,5-dione]
5.40	5.47	5.24	5.52	5.42	5.70	5.60	NCCCn1cc(C2=C(c3c[nH]c4ccccc34)C(=O)NC2=O)c2ccccc21 [Bisindolyl deriv. 19]
6.00							Cn1cc(C2=C(c3cn(CCCN)c4ccccc34)C(=O)NC2=O)c2ccccc21 [Ro 31-7549]
